The results in this text go back to US8916599B2, “1H-benz imidazole-5-carboxamides as anti-inflammatory agents” (Orexo AB, priority 2008, dated 2014).

What is called inhibition is the relative decrease from the control value, in per cent.

For one assay, the target named is T1, recombinant human mPGES-1 (Homo sapiens, UniProt O14684).
T1 construct: made in house; host or cells: Rosetta E. coli (microsomal/membrane fraction)
T1 sequence (O14684 1-152): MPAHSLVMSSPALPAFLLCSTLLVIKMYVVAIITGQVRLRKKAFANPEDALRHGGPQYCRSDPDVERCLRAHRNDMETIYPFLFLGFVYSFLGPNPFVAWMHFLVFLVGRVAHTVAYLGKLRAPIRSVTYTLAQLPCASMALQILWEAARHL
The assay is described as follows: mPGES-1 inhibition test (microsomes, PGH2 substrate, HTRF detection of PGE2). The format is biochemical. The conditions noted are these: inhibition of mPGES-1 at 1 μM (marked in cell). Summed up: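 Microsomes from E. coli expressing recombinant human mPGES-1 in 0.1 M KPi pH 7.4 with 2.5 mM GSH were preincubated with inhibitor 25 min at room temperature. PGH2 was then added, and the reaction was stopped after 1 min with acidified FeCl2. PGE2 was quantified by HTRF (665/620 nm ratio) against a synthetic PGE2 standard curve.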
In general terms: In TR-FRET formats the signal depends on donor and acceptor labels being close together.
Take `CC(C)Oc1cc2c(cc1C(=O)NC1CCC(C)(C)CC1)nc(Nc1c(Cl)ccc(Cl)c1F)n2C` [Example 625, 2-(3,6-Dichloro-2-fluoro-phenylamino)-6-isopropoxy-N-(4,4-dimethyl-cyclohex-1-yl)-1-methyl-1H-benzimidazole-5-carboxamide]: the inhibition at 1 µM turned out to be 99%. On to `O=C(Nc1ccc(Cl)c(C(F)(F)F)c1)c1ccc2[nH]c(Nc3c(Cl)cccc3Cl)nc2c1` [Example 282, 2-(2,6-Dichloro-phenylamino)-1H-benzimidazole-5-carboxylic acid (4-chloro-3-trifluoromethyl-phenyl)-amide], for which the inhibition at 1 µM amounted to 100%. The same measure, in the same setting: the result for `COc1cc2[nH]c(Nc3c(Cl)ccc(C)c3F)nc2cc1C(=O)N[C@H]1CC[C@H](C(F)(F)F)CC1` [Example 622, 2-(6-Chloro-2-fluoro-3-methyl-phenylamino)-6-methoxy-N-(4-trans-trifluoromethyl-cyclohex-1-yl)-1H-benzimidazole-5-carboxamide] reads 96%.

Staying with this assay, now noted: inhibition of mPGES-1 at 10 μM.
In the case of `Cn1c(Nc2c(Cl)cccc2Cl)nc2cc(C(=O)Nc3ccccc3)ccc21` [Example 20, 2-(2,6-Dichloro-phenylamino)-1-methyl-1H-benzimidazole-5-carboxylic acid phenylamide], the inhibition at 10 µM came to 97%. The same measure, in the same setting: the result for `Cn1c(Nc2c(Cl)cccc2Cl)nc2cc(C(=O)NC3(C)CCCCC3)c(F)cc21` [Example 164, 2-(2,6-Dichloro-phenylamino)-6-fluoro-1-methyl-1H-benzimidazole-5-carboxylic acid (1-methyl-cyclohexyl)-amide] reads 100%; that for `O=C(Nc1cccc(Cl)c1)c1cc(Br)c2[nH]c(Nc3c(Cl)cccc3Cl)nc2c1` [compound 351], 100%; that for `O=C(Nc1ccc(Br)c(F)c1)c1cc2nc(Nc3c(Cl)cccc3Cl)[nH]c2cc1F` [Example 121, 2-(2,6-Dichloro-phenylamino)-6-fluoro-1H-benzimidazol-5-carboxylic acid (4-bromo-3-fluoro-phenyl)-amide], 95%.

For `Cn1c(Nc2c(Cl)cccc2Cl)nc2cc(C(=O)NC3CCC4(CC3)CC4)c(F)cc21` [Example 419, 2-(2,6-Dichlorophenylamino)-6-fluoro-1-methyl-N-(spiro[2.5]octan-6-yl)-1H-benzimidazole-5-carboxamide], the inhibition at 10 µM was found to be 100%. Still for that read-out and setting: the result for `CC1(C)CCC(NC(=O)c2cc3nc(Nc4c(Cl)ccc(Cl)c4F)[nH]c3cc2F)CC1` [Example 596, 2-(3,6-Dichloro-2-fluoro-phenylamino)-N-(4,4-dimethyl-cyclohex-1-yl)-6-fluoro-1H-benzimidazole-5-carboxamide] reads 95%; that for `CCCC[C@@H](C)NC(=O)c1cc2nc(Nc3c(Cl)cccc3Cl)n(C)c2cc1F` [Example 416, (R)-2-(2,6-Dichlorophenylamino)-6-fluoro-N-(hexan-2-yl)-1-methyl-1H-benzimidazole-5-carboxamide], 100%. Same read-out and setting: the same measure for `CO[C@H]1CC[C@H](NC(=O)c2ccc3[nH]c(Nc4c(Cl)cccc4Cl)nc3c2)CC1` [Example 216, 2-(2,6-Dichloro-phenylamino)-1H-benzimidazole-5-carboxylic acid ((1R,4R)-4-methoxy-cyclohexyl)-amide]: 64%; for `Cn1c(Nc2c(Cl)cccc2Cl)nc2cc(C(=O)NC34CC5CC(CC(C5)C3)C4)c(F)cc21` [Example 165, 2-(2,6-Dichloro-phenylamino)-6-fluoro-1-methyl-1H-benzimidazole-5-carboxylic acid adamantan-1-ylamide]: 98%; for `O=C(Nc1ccccc1)c1ccc2[nH]c(Nc3ccccc3C(F)(F)F)nc2c1` [Example 6, 2-(2-Trifluoromethyl-phenylamino)-1H-benzimidazole-5-carboxylic acid-phenylamide]: 99%. The same measure, in the same setting: the result for `O=C(NC1Cc2ccccc2C1)c1cc2nc(Nc3c(Cl)cccc3Cl)[nH]c2cc1Cl` [Example 58, 2-(2,6-Dichloro-phenylamino)-6-chloro-1H-benzimidazol-5-carboxylic acid indan-2-yl-amide] reads 90%. As to `CCCCCCNC(=O)c1cc2nc(Nc3c(F)cccc3Cl)n(C)c2cc1F` [Example 458, 2-(2-Chloro-6-fluorophenylamino)-6-fluoro-N-hexyl-1-methyl-1H-benzimidazole-5-carboxamide], the inhibition at 10 µM is 99%. Same read-out and setting: the same measure for `Cc1ccc(NC(=O)c2ccc3[nH]c(Nc4c(Cl)cccc4Cl)nc3c2)nc1C` [Example 498, 2-(2,6-Dichlorophenylamino)-N-(5,6-dimethylpyridin-2-yl)-1H-benzimidazole-5-carboxamide]: 100%. Still for that read-out and setting: the same measure for `Cc1cc(C)nc(NC(=O)c2ccc3[nH]c(Nc4c(Cl)cccc4Cl)nc3c2)c1` [Example 117, 2-(2,6-Dichloro-phenylamino)-1H-benzimidazole-5-carboxylic acid (4,6-dimethyl-pyridin-2-yl)-amide]: 100%; for `Cn1c(Nc2c(Cl)cccc2Cl)nc2cc(C(=O)N[C@H]3CC[C@@H](C(F)(F)F)CC3)c(F)cc21` [Example 170, 2-(2,6-Dichloro-phenylamino)-6-fluoro-1-methyl-1H-benzimidazole-5-carboxylic acid (cis-4-trifluoromethyl-cyclohexyl)-amide]: 100%.

Turning to `CS(=O)(=O)NCCCn1c(Nc2c(Cl)cccc2Cl)nc2cc(C(=O)Nc3cc(Cl)ccn3)ccc21` [Example 206, 2-(2,6-Dichloro-phenylamino)-1-(3-methanesulfonylamino-propyl)-1H-benzimidazole-5-carboxylic acid (4-chloro-pyridin-2-yl)-amide], the inhibition at 10 µM was found to be 100%.

In the case of `CCNC(=O)c1cc(Br)c2c(c1)nc(Nc1c(Cl)cccc1Cl)n2C` [Example 352, 7-Bromo-2-(2,6-dichloro-phenylamino)-1-methyl-1H-benzimidazole-5-carboxylic acid ethylamide], the inhibition at 10 µM came out at 71%. On the same count and under the same terms, the result for `O=C(Nc1cc(Cl)cc(Cl)c1)c1ccc2[nH]c(Nc3c(Cl)cccc3Cl)nc2c1` [Example 112, 2-(2,6-Dichloro-phenylamino)-1H-benzimidazole-5-carboxylic acid (3,5-dichloro-phenyl)-amide] reads 97%; that for `Cn1c(Nc2c(Cl)cccc2Cl)nc2cc(C(=O)NC3CCC(F)(F)CC3)c(F)cc21` [Example 156, 2-(2,6-Dichloro-phenylamino)-6-fluoro-1-methyl-1H-benzimidazole-5-carboxylic acid (4,4-difluoro-cyclohexyl)-amide], 100%; that for `O=C(Nc1ccc(Br)cc1)c1ccc2[nH]c(Nc3ccc(Cl)cc3Cl)nc2c1` [Example 109, 2-(2,4-Dichloro-phenylamino)-1H-benzimidazole-5-carboxylic acid (4-bromo-phenyl)-amide], 100%. Consider `O=C(Nc1ccc(Br)cc1)c1cc2nc(Nc3c(Cl)cc(F)cc3Cl)[nH]c2cc1OCCF` [Example 585, 2-(2,6-Dichloro-4-fluoro-phenylamino)-N-(4-bromo-phenyl)-6-(2-fluoroethoxy)-1H-benzimidazole-5-carboxamide], for which the inhibition at 10 µM came out at 100%. The same measure, in the same setting: the result for `CC(C)(C)[C@H]1CC[C@@H](NC(=O)c2cc3nc(Nc4c(F)cccc4Cl)[nH]c3cc2F)CC1` [Example 378, N-((1s,4s)-4-tert.-Butylcyclohexyl)-2-(2-chloro-6-fluorophenylamino)-6-fluoro-1H-benzimidazole-5-carboxamide] reads 100%; that for `CCOc1cc2[nH]c(Nc3c(Cl)ccc(Cl)c3F)nc2cc1C(=O)Nc1cccc(Cl)c1` [Example 603, 2-(3,6-Dichloro-2-fluoro-phenylamino)-N-(3-chloro-phenyl)-6-ethoxy-1H-benzimidazole-5-carboxamide], 90%. On to `Cn1c(Nc2c(Cl)cccc2Cl)nc2cc(C(=O)Nc3cccc(Cl)n3)ccc21` [Example 347, 2-(2,6-Dichloro-phenylamino)-1-methyl-1H-benzimidazole-5-carboxylic acid (6-chloro-pyridin-2-yl)-amide], for which the inhibition at 10 µM was 100%. On the same count and under the same terms, the same measure for `Cc1cccc(NC(=O)c2ccc3c(c2)nc(Nc2c(Cl)cccc2Cl)n3C)n1` [compound 328]: 95%; for `O=C(N[C@H]1CC[C@H](C(F)(F)F)CC1)c1cc2nc(Nc3c(Cl)ccc(Cl)c3F)[nH]c2cc1OCC(F)(F)F` [Example 592, 2-(3,6-Dichloro-2-fluoro-phenylamino)-N-(4-trans-trifluoromethyl-cyclohex-1-yl)-6-(2,2,2-trifluorethoxy)-1H-benzimidazole-5-carboxamide]: 97%. Still for that read-out and setting: the result for `Cc1nc(NC(=O)c2ccc3[nH]c(Nc4c(Cl)cccc4Cl)nc3c2)sc1C` [Example 77, 2-(2,6-Dichloro-phenylamino)-1H-benzimidazole-5-carboxylic acid (4,5-dimethyl-thiazol-2-yl)-amide] reads 96%; that for `Cn1c(Nc2c(Cl)cccc2Cl)nc2cc(C(=O)NC3CCc4ccccc4C3)c(F)cc21` (centres unmarked) [Example 162, 2-(2,6-Dichloro-phenylamino)-6-fluoro-1-methyl-1H-benzimidazole-5-carboxylic acid (1,2,3,4-tetrahydro-naphthalen-2-yl)-amide], 100%. On the same count and under the same terms, the same measure for `O=C(Nc1ccccc1)c1ccc2[nH]c(Nc3c(Cl)cccc3Cl)nc2c1` [Example 1, 2-(2,6-Dichloro-phenylamino)-1H-benzimidazole-5-carboxylic acid phenylamide]: 100%.
